Earlier results as cited in US20090252757A1, “METHODS AND COMPOSITIONS FOR INHIBITING HIV INFECTION” (IRM LLC, priority 2005, published 2009).

Molecular target: MLK3 (Homo sapiens, UniProt Q16584)
Settings: Roux et al., J. Biol. Chem. 277:49473-80, 2002

MLK3, sequence (Q16584 whole entry): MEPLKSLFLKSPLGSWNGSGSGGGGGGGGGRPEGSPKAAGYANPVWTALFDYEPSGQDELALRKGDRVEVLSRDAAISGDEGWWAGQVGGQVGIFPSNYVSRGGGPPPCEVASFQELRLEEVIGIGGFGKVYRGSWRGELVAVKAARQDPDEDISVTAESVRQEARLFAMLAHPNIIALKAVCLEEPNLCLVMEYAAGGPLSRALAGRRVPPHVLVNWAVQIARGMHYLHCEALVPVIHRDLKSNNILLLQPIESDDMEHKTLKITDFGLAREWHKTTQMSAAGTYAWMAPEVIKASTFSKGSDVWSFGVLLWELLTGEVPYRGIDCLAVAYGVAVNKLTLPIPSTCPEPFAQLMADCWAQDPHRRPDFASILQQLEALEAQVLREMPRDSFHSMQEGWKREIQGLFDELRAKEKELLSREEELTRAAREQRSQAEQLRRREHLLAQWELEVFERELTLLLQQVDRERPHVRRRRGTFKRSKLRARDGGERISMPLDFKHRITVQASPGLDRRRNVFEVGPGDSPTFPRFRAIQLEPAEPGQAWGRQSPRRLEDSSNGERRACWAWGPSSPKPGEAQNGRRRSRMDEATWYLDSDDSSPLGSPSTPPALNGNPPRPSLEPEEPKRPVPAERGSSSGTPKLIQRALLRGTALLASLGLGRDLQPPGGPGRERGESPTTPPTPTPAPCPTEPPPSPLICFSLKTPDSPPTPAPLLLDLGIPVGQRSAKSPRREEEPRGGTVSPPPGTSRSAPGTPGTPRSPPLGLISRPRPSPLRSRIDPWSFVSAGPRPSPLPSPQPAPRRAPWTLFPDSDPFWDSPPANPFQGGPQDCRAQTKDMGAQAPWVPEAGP

inhibition of MLK3 kinase activity: inhibit the kinase activity of MLK3
SMILES: CCSCc1ccc2c(c1)c1c3c(c4c5cc(CSCC)ccc5n5c4c1n2[C@H]1C[C@](O)(C(=O)OC)[C@]5(C)O1)CNC3=O [CEP1347]
